This test concerns relapse-remitting EAE model induced with PLP139-151 peptide in SJL mice. As to the kind of experiment: SJL EAE model, therapeutic treatment (Example 3), clinical results. The test is classed as in vivo. The conditions noted are these: for MMS ± SD: Day 0-42; for MMS ± SD / Incidence of relapse (%) / MMS of relapse period ± SD (Days 18-42) / End % body weight ± SD / End score ± SD: PO QD day ~11 - day 42; for MMS until Day 17 ± SD: acute phase, PO QD from day ~11; for End % body weight ± SD / End score ± SD: end of study. As to the method:
The SJL EAE model is a Th17/Th1-mediated mouse model of relapsing-remitting neuroinflammatory disease that is induced via immunization with proteolipid protein (PLP), a major protein constituent of CNS myelin. Disease pathology is due to infiltration of immune cells in the CNS leading to decreased motor function and paralysis. Briefly, in this model mice are injected subcutaneously with an emulsion of PLP-peptide plus CFA and intraperitoneally with pertussis toxin on day 0. Acute neuroinflammatory disease develops between day 10 to day 16, and the relapsing-remitting disease phase occurs from day 20 to day 45. Mice are dosed daily from the day of sensitization through the end of the study by oral gavage. In a therapeutic model, dosing of the mice begins on the second day of disease (~ Day 11 after disease induction). Mice are scored daily for a decrease in motor function and complete paralysis in the tail and limbs. Histopathology is carried out to score the frequency of inflammatory infiltrates and demyelination in the spinal cord.
The model details and read-outs, and methods are described below. Treatment began two days after disease onset, around day ~11 (mice were enrolled on the second day of disease for each mouse).
Experimental Autoimmune Encephalomyelitis. Female SJL mice (8-10 weeks old) were subcutaneously injected at four sites with myelin proteolipid protein (PLP) 139-151 in CFA emulsion (0.05 mL/injection site; ~0.5 mg PLP PLP139-151/mL; Hooke Laboratories; EK-2120). Following immunization, EAE induction was completed by intraperitoneal injections of pertussis toxin (6 µg/mL; 0.1 mL/mouse) within 2 hours of immunization. Mice were randomized into groups and monitored for EAE clinical score over the course of 42 days. Disease progression was scored blinded of treatment or prior measurements. Disease severity was scored using standard EAE criteria: 0 (normal); 1 (loss of tail tone); 2 (hind limb weakness); 3 (hind limb paralysis); 4 (hind limb paralysis and forelimb paralysis or weakness); 5 (morbidity/death). Mice were observed daily for clinical symptoms.
• Vehicle (anaerobic sucrose buffer) PO QD day ~11 - day 42 • G.I. Strain A 10 mg/dose PO QD day ~11 - day 42 • Fingolimod, 1 mg/kg PO QD day ~11 - day 42 • Fingolimod, 0.1 mg/kg PO QD day ~11 - day 42
G.I. Strain A was prepared as a lyophilized powder and was gamma irradiated prior to use.

The mark [1] stands for this setting: Strain A 10 mg/dose, Fingolimod 1 mg/kg.

Each structure is given as a SMILES string.

Regarding `CCCCCCCCc1ccc(CCC(N)(CO)CO)cc1` [Fingolimod], where the note is “Fingolimod 0.1 mg/kg”, the “MMS ± SD” value is 3.20±0.70, the “Incidence of relapse (%)” value is recorded as 28.6%, the “MMS of relapse period ± SD (Days 18-42)” value is 1.77±1.53 and the “MMS until Day 17 ± SD” value turned out to be 3.13 ± 0.69. Also, under “Fingolimod 0.1 mg/kg”, the “End % body weight ± SD” value is 95.2±11.1% and the “End score ± SD” value was 0.97±1.45. Under setting [1], the “MMS ± SD” value amounted to 3.13±0.52, the “Incidence of relapse (%)” value is on record as 0%, the “MMS of relapse period ± SD (Days 18-42)” value turned out to be 0.83±0.67 and the “MMS until Day 17 ± SD” value was found to be 3.13±0.52. In addition, under setting [1], the “End % body weight ± SD” value worked out at 101.8±12.0% and the “End score ± SD” value was 0.10±0.21.

(Values after patent US20230277603A1, “VEILLONELLA PARVULA STRAIN AS AN ORAL THERAPY FOR NEUROINFLAMMATORY DISEASES” (Evelo Biosciences, Inc., priority 2020, published 2023).)
